These are literature values, as cited in patent publication US4937073A, “Reformed vetiver oil and vetiverol, process for preparing the same, and perfumery composition comprising the same” (Kao Corporation, priority 1988, dated 1990).

Like-named read-outs stand apart in the source and are kept apart here.

The term pKa denotes the pH at which an ionisable group is half protonated.

Turning to `O=C(O)C(O)C(O)C(=O)O` (centres unmarked) [tartaric acid], the pKa is 2.82. In addition, where the note is “listed as Tartaric acid”, the pKa is on record as 1.04.
